According to ChEMBL document CHEMBL4622865, “Sulfonamide-based 4-anilinoquinoline derivatives as novel dual Aurora kinase (AURKA/B) inhibitors: Synthesis, biological evaluation and in silico insights” (Bioorg Med Chem, 2020):

Tests used:
[1] = target: T1, Aurora kinase A (Homo sapiens) (UniProt O14965); experiment: Inhibition of human Aurora A using [H-LRRASLG] as substrate at 20 uM in presence of [gamma-33P]-ATP incubated for 2 hrs by hotspot kinase assay relative to control
T1 sequence (whole entry): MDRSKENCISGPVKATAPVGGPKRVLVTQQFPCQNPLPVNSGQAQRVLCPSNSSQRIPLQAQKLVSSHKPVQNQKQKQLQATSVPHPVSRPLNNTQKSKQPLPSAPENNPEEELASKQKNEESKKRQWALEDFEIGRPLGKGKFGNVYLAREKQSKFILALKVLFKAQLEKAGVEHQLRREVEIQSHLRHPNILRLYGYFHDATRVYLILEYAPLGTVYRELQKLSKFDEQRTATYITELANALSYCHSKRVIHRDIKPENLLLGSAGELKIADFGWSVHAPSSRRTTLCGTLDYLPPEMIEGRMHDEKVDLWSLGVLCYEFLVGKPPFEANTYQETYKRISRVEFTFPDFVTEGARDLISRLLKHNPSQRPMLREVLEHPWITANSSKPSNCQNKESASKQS

SF-268 = experiment: Antitumor activity against human SF268 cells assessed as growth inhibition at 10-'5 M incubated for 48 hrs by SRB assay relative to control; assay type: functional
NCI-H522 = experiment: Antitumor activity against human NCI-H522 cells assessed as growth inhibition at 10-'5 M incubated for 48 hrs by SRB assay relative to control; assay type: functional
Aurora kinase A = target: T2, Aurora kinase A (Homo sapiens, UniProt O14965); experiment: Inhibition of human Aurora A using [H-LRRASLG] as substrate in presence of [gamma-33P]-ATP incubated for 2 hrs by hotspot kinase assay
T2 sequence (O14965 whole entry): T1 sequence (whole entry)

PC-3 = experiment: Antitumor activity against human PC3 cells assessed as growth inhibition at 10-'5 M incubated for 48 hrs by SRB assay relative to control; assay type: functional
RXF 393 = experiment: Antitumor activity against human RXF393 cells assessed as growth inhibition at 10-'5 M incubated for 48 hrs by SRB assay relative to control; assay type: functional
KM12 = experiment: Antitumor activity against human KM12 cells assessed as growth inhibition at 10-'5 M incubated for 48 hrs by SRB assay relative to control; assay type: functional
K562 = experiment: Antitumor activity against human K562 cells assessed as growth inhibition at 10^-5 M incubated for 48 hrs by SRB assay relative to control; assay type: functional; conditions: K562, 48 h, read-out: GI
T47D = experiment: Antitumor activity against human T47D cells assessed as growth inhibition at 10-'5 M incubated for 48 hrs by SRB assay relative to control; assay type: functional
[2] = Antitumor activity against human […] cells assessed as growth inhibition at 10-'5 M incubated for 48 hrs by SRB assay relative to control; assay type: functional
HT-29 = experiment: Antitumor activity against human HT-29 cells assessed as growth inhibition at 10-'5 M incubated for 48 hrs by SRB assay relative to control; assay type: functional
SK-MEL-5 = experiment: Antitumor activity against human SK-MEL-5 cells assessed as growth inhibition at 10-'5 M incubated for 48 hrs by SRB assay relative to control; assay type: functional
UACC-62 = experiment: Antitumor activity against human UACC62 cells assessed as growth inhibition at 10-'5 M incubated for 48 hrs by SRB assay relative to control; assay type: functional
786-0 = experiment: Antitumor activity against human 786-O cells assessed as growth inhibition at 10-'5 M incubated for 48 hrs by SRB assay relative to control; assay type: functional
A498 = experiment: Antitumor activity against human A498 cells assessed as growth inhibition at 10-'5 M incubated for 48 hrs by SRB assay relative to control; assay type: functional
ACHN = experiment: Antitumor activity against human ACHN cells assessed as growth inhibition at 10-'5 M incubated for 48 hrs by SRB assay relative to control; assay type: functional
SN12C = experiment: Antitumor activity against human SN12C cells assessed as growth inhibition at 10-'5 M incubated for 48 hrs by SRB assay relative to control; assay type: functional
UO-31 = experiment: Antitumor activity against human UO31 cells assessed as growth inhibition at 10-'5 M incubated for 48 hrs by SRB assay relative to control; assay type: functional
Aurora kinase B [3] = target: T3, Aurora kinase B (Homo sapiens, UniProt Q96GD4); experiment: Inhibition of human Aurora B using [H-LRRASLG] as substrate in presence of [gamma-33P]-ATP incubated for 2 hrs by hotspot kinase assay
SR = experiment: Antitumor activity against human SR cells assessed as growth inhibition at 10-'5 M incubated for 48 hrs by SRB assay relative to control; assay type: functional
CAKI-1 = experiment: Antitumor activity against human CAKI-1 cells assessed as growth inhibition at 10-'5 M incubated for 48 hrs by SRB assay relative to control; assay type: functional
LOX IMVI = experiment: Antitumor activity against human LOXIMVI cells assessed as growth inhibition at 10-'5 M incubated for 48 hrs by SRB assay relative to control; assay type: functional
MCF7 = experiment: Antitumor activity against human MCF7 cells assessed as growth inhibition at 10-'5 M incubated for 48 hrs by SRB assay relative to control; assay type: functional
HOP-92 = experiment: Antitumor activity against human HOP92 cells assessed as growth inhibition at 10-'5 M incubated for 48 hrs by SRB assay relative to control; assay type: functional
HCT-15 = experiment: Antitumor activity against human HCT15 cells assessed as growth inhibition at 10-'5 M incubated for 48 hrs by SRB assay relative to control; assay type: functional
SK-OV-3 = experiment: Antitumor activity against human SKOV3 cells assessed as growth inhibition at 10-'5 M incubated for 48 hrs by SRB assay relative to control; assay type: functional
SNB-19 = experiment: Antitumor activity against human SNB19 cells assessed as growth inhibition at 10-'5 M incubated for 48 hrs by SRB assay relative to control; assay type: functional
NCI/ADR-RES = experiment: Antitumor activity against human NCI-ADR-RES cells assessed as growth inhibition at 10-'5 M incubated for 48 hrs by SRB assay relative to control; assay type: functional
Aurora kinase B [4] = target: T3, Aurora kinase B; experiment: Inhibition of human Aurora B using [H-LRRASLG] as substrate at 20 uM in presence of [gamma-33P]-ATP incubated for 2 hrs by hotspot kinase assay relative to control

T3 sequence (Q96GD4 whole entry): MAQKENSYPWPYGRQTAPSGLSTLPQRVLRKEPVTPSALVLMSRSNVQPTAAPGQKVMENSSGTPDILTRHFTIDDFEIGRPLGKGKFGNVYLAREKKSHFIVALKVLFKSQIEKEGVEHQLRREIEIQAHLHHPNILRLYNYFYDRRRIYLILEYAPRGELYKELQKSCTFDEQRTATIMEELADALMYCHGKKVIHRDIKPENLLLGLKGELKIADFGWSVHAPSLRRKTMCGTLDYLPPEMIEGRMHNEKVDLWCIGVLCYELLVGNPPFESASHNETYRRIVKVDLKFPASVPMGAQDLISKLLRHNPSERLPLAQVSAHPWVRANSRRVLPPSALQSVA

CCOC(=O)c1cnc2cc(Cl)cc(Cl)c2c1Nc1cccc(S(=O)(=O)NC)c1
inhibition [1]: 58.6% | growth inhibition (GI) (SF-268): >=25% | growth inhibition (GI) (NCI-H522): 35% | IC50 (Aurora kinase A): 930 nM | growth inhibition (GI) (PC-3): 30% | growth inhibition (GI) (RXF 393): 33% | growth inhibition (GI) (KM12): 64% | inhibition of growth at 10 µM (K562): 35% | growth inhibition (GI) (T47D): >=25% | growth inhibition (GI) [2]: 64% | growth inhibition (GI) (HT-29): >=25% | growth inhibition (GI) (SK-MEL-5): 31% | growth inhibition (GI) (UACC-62): 34% | growth inhibition (GI) (786-0): >=25% | growth inhibition (GI) (A498): 54% | growth inhibition (GI) (ACHN): 39% | growth inhibition (GI) (SN12C): >=25% | growth inhibition (GI) (UO-31): 50% | IC50 (Aurora kinase B [3]): 90 nM | growth inhibition (GI) (SR): >=25% | growth inhibition (GI) (CAKI-1): 41% | growth inhibition (GI) (LOX IMVI): >=25% | growth inhibition (GI) (MCF7): 30% | growth inhibition (GI) (HOP-92): 53% | growth inhibition (GI) (HCT-15): 34% | growth inhibition (GI) (SK-OV-3): 31% | growth inhibition (GI) (SNB-19): >=25% | growth inhibition (GI) (NCI/ADR-RES): >=25% | inhibition (Aurora kinase B [4]): 90.8%
